Values after ≈ are worked out from the molar mass of the structure shown.
How the values were obtained:
E. coli NIHJ [1] = test: MIC by two-fold agar dilution; type: cell-based; conditions: Mueller-Hinton agar, unit assumed
E. coli A20732 = test: MIC by two-fold agar dilution; type: cell-based; conditions: Mueller-Hinton agar, unit assumed
K. pneumoniae A9678 = test: MIC by two-fold agar dilution; type: cell-based; conditions: Mueller-Hinton agar, unit assumed
K. pneumoniae A20328 = test: MIC by two-fold agar dilution; type: cell-based; conditions: Mueller-Hinton agar, unit assumed
P. stuartii A20894 = test: MIC by two-fold agar dilution; type: cell-based; conditions: Mueller-Hinton agar, unit assumed
S. marcescens A20460 = test: MIC by two-fold agar dilution; type: cell-based; conditions: Mueller-Hinton agar, unit assumed
P. aeruginosa A9930 = test: MIC by two-fold agar dilution; type: cell-based; conditions: Mueller-Hinton agar, unit assumed
S. aureus 209P = test: MIC by two-fold agar dilution; type: cell-based; conditions: Mueller-Hinton agar, unit assumed
S. aureus 209P, R4 = test: MIC by two-fold agar dilution; type: cell-based; conditions: Mueller-Hinton agar, unit assumed
Experimental: The minimum inhibitory concentrations (MIC) of Bu-2231 A and B were determined against a wide variety of bacteria and fungi by the two-fold agar dilution method. Mueller-Hinton agar medium was used for the determination of bacterial MIC's (gram-positive and gram-negative), Medium #1001 [Glycerol (3%). Na-glutamate (0.3%), peptone (0.2%), Na2 HPO4 (0.31%), KH2 PO4 (0.1%), ammonium citrate (0.005%), MgSO4.7H2 O (0.001%), agar (1.5%)] for acid-fast bacteria and sabouraud agar for fungi. The results are shown in Tables 9 and 10 comparatively with bleomycin and phleomycin. The antibacterial and antifungal activities of Bu-2231 A and B are much higher than those of the reference antibiotics.

B. mycoides "0" = type: cell-based; conditions: Mueller-Hinton agar, unit assumed
B. cereus ATCC 10702A = test: MIC by two-fold agar dilution; type: cell-based; conditions: Mueller-Hinton agar, unit assumed
B. anthracis 115 = type: cell-based; conditions: Mueller-Hinton agar, unit assumed
[2] = system: Mycobacterium ranae, ATCC110; test: MIC by two-fold agar dilution; type: cell-based; conditions: Medium #1001, unit assumed
C. tropicalis IAM 4157 = test: MIC by two-fold agar dilution; type: cell-based; conditions: Ct-1 C. tropicalis IAM 4157; sabouraud agar; unit assumed
[3] = system: C. tropicalis #125 A15051; test: MIC by two-fold agar dilution; type: cell-based; conditions: Ct-4 C. tropicalis #125 A15051; sabouraud agar; unit assumed
C. neoformans IAM 4514 = test: MIC by two-fold agar dilution; type: cell-based; conditions: Cn-2 C. neoformans IAM 4514; sabouraud agar; unit assumed
A. niger var Tieghem = test: MIC by two-fold agar dilution; type: cell-based; conditions: An-1 A. niger var Tieghem; sabouraud agar; unit assumed
[4] = system: F. moniliforme NRRL A2284; test: MIC by two-fold agar dilution; type: cell-based; conditions: Fm-1 F. moniliforme NRRL A2284; sabouraud agar; unit assumed
C. lunata ATCC 13432 = test: MIC by two-fold agar dilution; type: cell-based; conditions: Cl-1 C. lunata ATCC 13432; sabouraud agar; unit assumed
T. mentagrophytes D-155 = test: MIC by two-fold agar dilution; type: cell-based; conditions: Tm-1 T. mentagrophytes D-155; sabouraud agar; unit assumed
M. canis D-51 = test: MIC by two-fold agar dilution; type: cell-based; conditions: Mc-1 M. canis D-51; sabouraud agar; unit assumed
E. coli NIHJ [5] = test: In vivo activity in experimental mice infection; conditions: Table 12; for PD50: E. coli NIHJ infection, mice, sc
Experimental: The in vivo activity of Bu-2231 complex was evaluated in experimental mice infections against S. aureus Smith and E. coli NIHJ. Bleomycin was tested comparatively as a reference antibiotic.
The in vivo activty of the individual components of Bu-2231 in each of the copper-free and copper complex forms was also determined in E. coli infection.

[6] = mice, single subcutaneous injection, 16 days
Experimental: The acute toxicity of copper-free Bu-2231 A and B was determined in mice by a single subcutaneous injection. Groups of 3 mice were used for each dose level and the body weight was recorded for 16 days.

SMILES	MIC (E. coli NIHJ [1])	MIC (E. coli A20732)	MIC (K. pneumoniae A9678)	MIC (K. pneumoniae A20328)	MIC (P. stuartii A20894)	MIC (S. marcescens A20460)	MIC (P. aeruginosa A9930)	MIC (S. aureus 209P)	MIC (S. aureus 209P, R4)	MIC (B. mycoides "0")	MIC (B. cereus ATCC 10702A)	MIC (B. anthracis 115)	MIC [2]	MIC (C. tropicalis IAM 4157)	MIC [3]	MIC (C. neoformans IAM 4514)	MIC (A. niger var Tieghem)	MIC [4]	MIC (C. lunata ATCC 13432)	MIC (T. mentagrophytes D-155)	other results
Cc1c(N)nc([C@H](CC(N)=O)NC[C@@H](N)C(N)=O)nc1C(=O)N[C@H](C(=O)N[C@H](C)[C@@H](O)CC(=O)N[C@@H](C(=O)NC(O[C@@H]1O[C@@H](C)[C@@H](N)[C@@H](O)[C@H]1O)C(O)c1nc(-c2nc(C(=O)NCCCNCCCCN)cs2)cs1)[C@@H](C)O)C(O[C@@H]1O[C@@H](CO)[C@H](O)[C@@H](O)[C@@H]1O[C@H]1O[C@H](CO)[C@@H](O)[C@@H](OC(N)=O)[C@@H]1O)c1cnc[nH]1 (some centres unmarked) [Bu-2231 B Cu-free]	0.2 µg/mL (≈ 0.125 µM)	0.2 µg/mL (≈ 0.125 µM)	0.4 µg/mL (≈ 0.249 µM)	1.6 µg/mL (≈ 0.998 µM)	0.4 µg/mL (≈ 0.249 µM)	0.8 µg/mL (≈ 0.499 µM)	0.8 µg/mL (≈ 0.499 µM)	0.4 µg/mL (≈ 0.249 µM)	0.8 µg/mL (≈ 0.499 µM)	0.2 µg/mL (≈ 0.125 µM)	0.2 µg/mL (≈ 0.125 µM)	0.1 µg/mL (≈ 0.0624 µM)	0.1 µg/mL (≈ 0.0624 µM)	0.8 µg/mL (≈ 0.499 µM)	0.8 µg/mL (≈ 0.499 µM)	0.2 µg/mL (≈ 0.125 µM)	0.2 µg/mL (≈ 0.125 µM)	0.8 µg/mL (≈ 0.499 µM)	0.2 µg/mL (≈ 0.125 µM)	6.3 µg/mL (≈ 3.93 µM)	MIC (M. canis D-51): 0.8 µg/mL (≈ 0.499 µM); PD50 (E. coli NIHJ [5]): 0.065 mg/kg; In vivo activity vs. E. coli NIHJ infection (x/5 mice) (E. coli NIHJ [5]; dose (sc) 0.008): 0/5; In vivo activity vs. E. coli NIHJ infection (x/5 mice) (E. coli NIHJ [5]; dose (sc) 0.03): 1/5; In vivo activity vs. E. coli NIHJ infection (x/5 mice) (E. coli NIHJ [5]; dose (sc) 0.13): 4/5; In vivo activity vs. E. coli NIHJ infection (x/5 mice) (E. coli NIHJ [5]; dose (sc) 0.5): 5/5; In vivo activity vs. E. coli NIHJ infection (x/5 mice) (E. coli NIHJ [5]; dose (sc) 2): 5/5; LD50 [6]: > 50 mg/kg
Cc1c(N)nc([C@H](CC(N)=O)NC[C@H](N)C(N)=O)nc1C(=O)N[C@H](C(=O)N[C@H](C)[C@@H](O)CC(=O)N[C@H](C(=O)NC(O[C@@H]1O[C@@H](C)[C@@H](N)[C@@H](O)[C@H]1O)C(O)c1nc(-c2nc(C(=O)NCCCC(N)CC(=O)NCCCNCCCCN)cs2)cs1)[C@@H](C)O)[C@H](O[C@@H]1O[C@@H](CO)[C@@H](O)[C@H](O)[C@@H]1O[C@H]1O[C@H](CO)[C@@H](O)[C@H](OC(N)=O)[C@@H]1O)c1c[nH]cn1 (some centres unmarked) [Bu-2231 A Cu-free]	0.025 µg/mL (≈ 0.0144 µM)	0.05 µg/mL (≈ 0.0289 µM)	0.2 µg/mL (≈ 0.115 µM)	0.8 µg/mL (≈ 0.462 µM)	0.4 µg/mL (≈ 0.231 µM)	0.4 µg/mL (≈ 0.231 µM)	0.4 µg/mL (≈ 0.231 µM)	0.1 µg/mL (≈ 0.0577 µM)	0.4 µg/mL (≈ 0.231 µM)	0.2 µg/mL (≈ 0.115 µM)	0.2 µg/mL (≈ 0.115 µM)	0.05 µg/mL (≈ 0.0289 µM)	0.1 µg/mL (≈ 0.0577 µM)	0.8 µg/mL (≈ 0.462 µM)	0.8 µg/mL (≈ 0.462 µM)	0.4 µg/mL (≈ 0.231 µM)	0.2 µg/mL (≈ 0.115 µM)	0.8 µg/mL (≈ 0.462 µM)	0.8 µg/mL (≈ 0.462 µM)	12.5 µg/mL (≈ 7.22 µM)	MIC (M. canis D-51): 3.1 µg/mL (≈ 1.79 µM); PD50 (E. coli NIHJ [5]): 0.024 mg/kg; In vivo activity vs. E. coli NIHJ infection (x/5 mice) (E. coli NIHJ [5]; dose (sc) 0.008): 1/5; In vivo activity vs. E. coli NIHJ infection (x/5 mice) (E. coli NIHJ [5]; dose (sc) 0.03): 3/5; In vivo activity vs. E. coli NIHJ infection (x/5 mice) (E. coli NIHJ [5]; dose (sc) 0.13): 5/5; In vivo activity vs. E. coli NIHJ infection (x/5 mice) (E. coli NIHJ [5]; dose (sc) 0.5): 5/5; In vivo activity vs. E. coli NIHJ infection (x/5 mice) (E. coli NIHJ [5]; dose (sc) 2): 5/5; LD50 [6]: 28 mg/kg
